Laboratory results reported in PubChem BioAssay AID977621 (Broad Institute, 2014).
Inconclusive results are not listed. Activity calls are given as the source filed them.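 How the source made its calls: active means Wild-type ribosome reporter drop at least double the humanized mutant ribosome reporter drop, growth loss under a set limit; inconclusive means no clear call, values can overlap the other calls; inactive means the rest.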

Test system: E. coli wild-type GFP strain growth, fluorescence, 24 h
Test: wild-type E. coli growth inhibition versus H69 humanized strain – H69 mutant RFP, wild-type GFP, cherry-pick, dose response (AID 977621);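 further: wild-type GFP and H69 mutant RFP strains grown together 50/50 in each well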
[1] = E. coli mixed culture, 24 h, measured here: total growth OD600, test 2

Row | SMILES | AC50 | AC50 [1] [µM] | AC50 (measured here: total growth OD600, test 2) [µM]
1 | Cc1cc(-c2ccc(C)c(S(=O)(=O)NC(C)Cc3ccco3)c2)on1 (stereo not given) | > 100 µM (inactive) | 31 | 
2 | CCc1ccc2nc(SCC(=O)Nc3ccccc3N3CCOCC3)c(C#N)cc2c1 |  | > 100 | 
3 | CCCC[n+]1ccn(-c2nc3ccccc3nc2[N-]S(=O)(=O)c2cccs2)c1 | > 100 µM (inactive) | > 100 | 
4 | O=C1CC(=O)N(Cc2ccccc2)C(=O)N1CCCCCCN1C(=O)CC(=O)N(Cc2ccccc2)C1=O |  |  | > 100
5 | C[C@@H]1CCCCO[C@@H](CN(C)C(=O)c2ccccc2)[C@H](C)CN([C@@H](C)CO)C(=O)c2cc(NC(=O)Cc3ccccc3)ccc2O1 | > 100 µM (inactive) | > 100 | 
6 | C=CCn1c(-c2cc3cccc(OC)c3o2)n[nH]c1=S | > 100 µM (inactive) |  | 
7 | O=C(COc1cccc2c1CCN(Cc1ccccc1F)C2=O)N1CCCCC1 | > 100 µM (inactive) |  | 
8 | COc1ccc(C(=O)Cn2nnc(-c3ccccc3F)n2)cc1 | > 100 µM (inactive) | 41.2 | 
9 | CCn1c(SCC(=O)Nc2ccc(OC)cc2)nc2nc3c(cc2c1=O)CCCC3 |  | > 100 | 
10 | Cc1cccc(OCc2nnc(SCC(=O)Nc3ncc(C)s3)o2)c1 | > 100 µM (inactive) | > 100 | 
11 | O=C(COn1nnc2ccc(C(F)(F)F)cc21)Nc1c(Cl)cccc1Cl | > 100 µM (inactive) |  | 
12 | Cc1ccc(N2C(=S)NC3c4cc(Cl)ccc4OC2(C)C3C(=O)N(C)C)cc1 (stereo not given) |  | > 100 | 
13 | CS(=O)(=O)N(CC(=O)N1CCc2ccccc2C1)c1cccc(Br)c1 |  | > 100 | 
14 | CC(C)(C)NC(=O)C(c1ccncc1)N(Cc1ccc(F)cc1)C(=O)c1ccc(-c2ccccc2)[nH]1 (stereo not given) |  | > 100 | 
15 | CSc1ccccc1NC(=O)c1ccccc1N(Cc1ccccc1)S(C)(=O)=O |  | > 100 | 
16 | Cc1ccc(S(=O)(=O)NC(C)C(=O)NCc2ccc(Cl)cc2)cc1 (stereo not given) | > 100 µM (inactive) | > 100 | 
17 | CCn1nc(Cc2cccc3ccccc23)c(C#N)c1N | > 100 µM (inactive) |  | 
18 | O=C1NC(CCc2ccccc2)C(=O)N1Cc1cccc2ccccc12 (stereo not given) |  | 50 | 
19 | CCOCC(=O)Nc1c(C(=O)Nc2ccc3c(c2)OCCO3)oc2ccccc12 | > 100 µM (inactive) |  | 
20 | O=C(Nc1ccc(F)c(Cl)c1)C1CC2CCC1C2 (stereo not given) |  | > 100 | 
21 | Cc1noc(C)c1S(=O)(=O)N(Cc1ccccc1)C(C)C |  | > 100 | 
22 | O=c1[nH]c(C2CCN(S(=O)(=O)c3ccc4c(c3)OCCO4)CC2)nc2c1nnn2Cc1ccccc1F | > 100 µM (inactive) |  | 
23 | COc1cc(NC(=O)CSCc2ccc(Cl)cc2Cl)c(C(=O)O)cc1OC | > 100 µM (inactive) | > 100 | 

Row | SMILES | AC50 | AC50 [1] [µM] | AC50 (measured here: total growth OD600, test 2) [µM]
24 | COc1ccc(-c2cn(-c3ccc(Cl)cc3)c3[n+]2CCCCC3)cc1 | > 100 µM (inactive) |  | 
25 | COC(=O)CNC(=O)COC(=O)c1ccc(Cl)nc1 |  | > 100 | 
26 | Cc1ccc(NS(=O)(=O)c2cc(C(=O)N3CCc4ccccc4C3)ccc2Cl)cc1 |  | 33.3 | 
27 | Cc1ccc(NC(=O)C[n+]2cc(-c3ccccc3)n3c2CCC3)cc1 |  | > 100 | 
28 | Cc1onc(-c2c(F)cccc2Cl)c1C(=O)c1ccccc1O |  | 42.4 | 
29 | COc1cc(C(=O)NCCc2c[nH]c3ccccc23)ccc1OCc1c(C)noc1C |  | > 100 | 
30 | COc1ccc(-c2csc(NC(=O)c3ccoc3C)n2)cc1 | > 100 µM (inactive) | 48.8 | 
31 | Cc1cc(C(=O)Nc2cccc3c2O[C@H](CN(C)S(=O)(=O)c2ccc(Cl)cc2)[C@H](C)CN([C@H](C)CO)C3=O)n(C)n1 | > 100 µM (inactive) |  | 
32 | COc1ccc(C2CC(=O)Oc3cc(C)cc(C)c32)cc1 (stereo not given) |  | > 100 | 
33 | Cc1cc(C(=O)COC(=O)CNC(=O)c2ccccc2)c(C)n1CC1CCCO1 (stereo not given) |  | > 100 | 
34 | O=C(c1cccc(F)c1)N1CCN(c2ccc([N+](=O)[O-])c3cccnc23)CC1 | > 100 µM (inactive) | > 100 | 
35 | CCC(=O)c1ccc(OCC(=O)Nc2nc(C)cs2)cc1 | > 100 µM (inactive) | > 100 | 
36 | CC1CCN(c2ccc3nnc(CCC(=O)Nc4cccc(F)c4)n3n2)CC1 | > 100 µM (inactive) | > 100 | 
37 | CCOc1ccccc1C(=O)OCC(=O)NCCc1ccc(OC)cc1 | > 100 µM (inactive) |  | 
38 | COc1ccc(CN(CC(O)COCc2ccccc2)S(=O)(=O)c2ccccc2Br)cc1OC (stereo not given) | > 100 µM (inactive) | 28.5 | 
39 | O=C(c1ccc(N2CCCCC2)c([N+](=O)[O-])c1)N1CCN(c2ccccn2)CC1 | > 100 µM (inactive) | > 100 | 
40 | CC(OC(=O)COc1ccccc1)C(=O)NC1CCCC1 (stereo not given) | > 100 µM (inactive) | > 100 | 
41 | O=S(=O)(Cc1ccccc1)N1CCCCN2[C@@H](CO)[C@H](c3ccc(C#Cc4ccccc4)cc3)[C@@H]2C1 | > 100 µM (inactive) |  | 
42 | Cc1cc(C(=O)c2ccc3ccccc3c2)c(C)o1 | > 100 µM (inactive) |  | 
43 | CN(Cc1c(F)cccc1Cl)C(=O)c1ccc(NS(=O)(=O)c2ccc3[nH]c(=O)[nH]c3c2)cc1 | > 100 µM (inactive) |  | 
44 | COc1cc(-c2cc3nc(NCCc4ccncc4)ccn3n2)cc(OC)c1OC | > 100 µM (inactive) |  | 
45 | CC(C)(C)c1ccc(S(=O)(=O)NCc2ccc(C(=O)NCc3ccccn3)cc2)cc1 |  | > 100 | 
46 | CCc1cc2ccc(OC)cc2nc1SCC(=O)N1CCN(C(=O)c2ccco2)CC1 |  | 42.2 | 
